Experimental findings from patent US8044022B2, “Hyaluronic acid binding peptides enhance host defense against pathogenic bacteria” (priority 2005, dated 2011) are described below.

Non-standard residues stand in square brackets, D forms with d. Residues, ends and D or L forms follow the SMILES beside them. No end group written: not given here.

For one data set, the system named is GAS. Briefly: Bacterial translocation through polarized keratinocyte cultures (Transwell). The data set is classed as cell-based, Group A Streptococcus. The conditions noted are these: two hours after addition of GAS; vs PBS or SCRM. The protocol: Cell cultures: For the preparation of in vitro keratinocyte cultures, human primary OKP7 cells were derived from the oropharynx. Keratinocytes were seeded at 5×10^5 cells per well onto polycarbonate Transwell membrane supports (12 well plates, 3.0 μm pore size; Costar) or tissue culture treated plastic ware and cultured for 5-10 days at 37° C. with 5% humidified CO2 in cSFM medium with daily medium changes. Once confluent, the calcium concentration of the cSFM was increased to 1.2 mM and cells were cultured for 2 more days, before the integrity of the monolayer was assessed by measuring permeability to sodium fluorescein, and in some experiments, by measuring transepithelial electrical resistance.
Infection procedures: Keratinocyte layer cultures in Transwell inserts were inoculated in the upper chamber with GAS, S. equi, S. uberis, and P. multocida at a multiplicity of infection (MOI) of 1 bacterium per keratinocyte in the presence or absence of HABP01 or SCRM. Infected cultures were incubated at 37° C. with 5% CO2 for the desired time. In translocation experiments, Transwell inserts containing the keratinocytes were moved to new wells containing fresh medium every 2 hours to prevent overgrowth of bacteria that had translocated through the keratinocytes layer to the lower chamber. Bacterial translocation was quantified by culturing medium from the lower chamber at 2-hour intervals.
Bacterial translocation studies were performed to assess the impact of HABP01 on bacterial paracellular translocation through polarized keratinocyte cultures.
Incubation of GAS in the presence of HABP33, HABP35 and HABP42, also delayed GAS translocation. At two hours after the addition of GAS to the keratinocytes, approximately 530 CFU of GAS were detected in the lower level in cultures treated with PBS or SCRM peptide.

The subject of the next data set is human red blood cells. Briefly: Hemolytic activity, hemoglobin release from red blood cells (12 hour protocol).
Data set [1] is described as follows: Surface plasmon resonance (Biacore T-100) binding of peptides to immobilized biotin-labeled hyaluronic acid. On the set-up: species or system rooster. The conditions noted are these: SPR, biotin-HA immobilized on streptavidin chip. The protocol: Surface plasmon resonance spectroscopy (SPR) studies were performed on a Biacore T-100 to quantitate the binding of peptides to hyaluronic acid (HA). Biotin-labeled hyaluronic acid (Sigma B1557, hyaluron sodium salt from rooster comb with >97% purity, average approximately 850 kDd, 98% labeled) was immobilized on one of the four flow cells of a streptavidin-coated series S sensor chip SA. […] Peptides were then injected across the surface and the degree of binding interaction is measured in response units (RU).
The average net binding for HABP35 to HA was 399±77 RU or significant binding. The other HA binding peptides also had positive RU values.
In general terms: Surface plasmon resonance follows binding to a sensor surface in real time, without labels.

A further data set concerns S. aureus strain PS80. Kind of data set: Mouse model of S. aureus surgical wound infection. The data set is classed as in vivo, C57BL6 mice. Conditions: 100 μg into wound at time of challenge with 10^2 CFU; 3 days later. The protocol: Bacterial strains. S. aureus strain PS80 (serotype 8) was obtained from the American Type Culture collection (#27700) and is a potent inducer of intraabdominal abscess formation. S. aureus COL is a methicillin resistant strain that produces a serotype 5 capsule. Staphylococci were cultivated for 24 h at 37° C. on Columbia agar (Difco Laboratories, Detroit, Mich.) supplemented with 2% NaCl.
Mouse model of S. aureus wound infection. Mice (C57BL6, male, 6-8 wk old) were obtained from Jackson Laboratories (Bar Harbor, Me.). Groups of mice (N=4/group/experiment) were anesthetized with 100 mg/kg ketamine and 10 mg/kg xylazine, their right thighs were shaved, and the surgical area was disinfected with iodine and 70% ethanol. An incision was made in the skin to expose the thigh muscle, and a 1-cm incision was made with a scalpel into the thigh muscle to the depth of the bone. The muscle was then closed with one 4-0 silk suture, and 10 μl of a S. aureus suspension ranging in dose from 10^2 to 10^4 CFU was introduced into the incision under the suture. The skin was closed with four additional Prolene sutures. The mice were euthanized at 3 days post-surgery. The wounded muscle tissue was excised, weighed (˜0.08 g), and homogenized in 1 ml of tryptic soy broth. Serial dilutions of the homogenates were plated in duplicate and results were expressed as CFU/g tissue. Peptides were administered to animals in two ways. For most experiments, HABPs were solubilized in PBS and administered with a pipet into the wound in a 10 μl volume following challenge with bacteria. A 100 μg dose was used for most experiments. For therapeutic studies, peptide was administered via a 1 ml tuberculin syringe fitted with a 25 gauge needle in a 0.25 ml volume injected into the thigh muscle containing the wound distal from the incision site.
Gross pathology and histologic analysis of host response. […] Histological examination of these wounds confirmed these findings. Muscle tissue was harvested from mice at designated intervals post-surgery, fixed in 10% buffered formalin, and mounted in paraffin; 5 to 6-μm sections were cut and stained with hematoxylin and eosin for microscopic examination. […] The cellular infiltrate was primarily comprised of PMNs and fibrin.
Statistical analyses. All animal experiments were performed at least two times and the data pooled. Comparison of S. aureus CFU/g tissue was made by the Welch modification of the unpaired Student t test (InStat, GraphPad Software, San Diego, Calif.).

Method for human red blood cells: Determination of hemolytic activity is measured through the release of hemoglobin from human red blood cells as measured spectrophotometrically.
Briefly, a dilution series of the peptide was prepared in two-fold dilutions from 512 to 1 μg/mL. Triplicate determinations of each peptide concentration were added to 1% human red blood cells and incubated for 12 hours at 37° C. The negative control for hemolysis consisted of 1% red blood cells with no peptide added. The positive control for hemolysis was 1% red blood cells in 0.15M NH4Cl. Hemoglobin release was measured at an absorbance of 562 nm.
Percent hemolysis is calculated as the ratio of the optical density (OD) of the peptide relative to the OD of the positive control for hemolysis.

As for “VSKLRSQLVKRKQN (VSKLRSQLVKRKQN-NH2) [HABP33]”, in the data set on GAS, the “decrease in the numbers of translocating GAS bacteria” value was roughly 90%.

With `CC[C@H](C)[C@H](NC(=O)[C@H](CCCCN)NC(=O)[C@H](CCC(N)=O)NC(=O)[C@H](CCCCN)NC(=O)[C@@H](N)CC(C)C)C(=O)N[C@@H](CCCCN)C(=O)N[C@@H](Cc1c[nH]cn1)C(=O)N[C@H](C(=O)N[C@H](C(=O)N[C@@H](CCCCN)C(=O)N[C@@H](CC(C)C)C(=O)N[C@@H](CCCCN)C(=O)N[C@H](C(=O)N[C@H](C(=O)N[C@H](C(=O)N[C@@H](CCCCN)C(=O)N[C@@H](CC(C)C)C(=O)N[C@@H](CCCNC(=N)N)C(=O)N[C@@H](CO)C(=O)N[C@@H](CCC(N)=O)C(=O)N[C@@H](CC(C)C)C(=O)N[C@H](C(=O)N[C@@H](CCCCN)C(=O)N[C@@H](CCCNC(=N)N)C(=O)N[C@@H](CCCCN)C(=O)N[C@@H](CCC(N)=O)C(=O)N[C@@H](CC(N)=O)C(N)=O)C(C)C)C(C)C)C(C)C)C(C)C)C(C)C)C(C)C` [HABP35] (H-LKQKIKHVVKLKVVVKLRSQLVKRKQN-NH2), the hemolytic activity entry in the data set on human red blood cells (highest concentration tested, 512 μg/mL, 1% human red blood cells, 12 hours, 37° C.) is given as “minor hemolytic activity”.

Consider `CC[C@H](C)[C@H](NC(=O)CN)C(=O)NCC(=O)N[C@@H](C)C(=O)N[C@H](C(=O)N[C@@H](CC(C)C)C(=O)N[C@@H](CCCCN)C(=O)N[C@H](C(=O)N[C@@H](CC(C)C)C(=O)N[C@H](C(=O)N[C@H](C(=O)NCC(=O)N[C@@H](CC(C)C)C(=O)N1CCC[C@H]1C(=O)N[C@@H](C)C(=O)N[C@@H](CC(C)C)C(=O)N[C@H](C(=O)N[C@@H](CO)C(=O)N[C@@H](Cc1c[nH]c2ccccc12)C(=O)N[C@H](C(=O)N[C@@H](CCCCN)C(=O)N[C@@H](CCCNC(=N)N)C(=O)N[C@@H](CCCCN)C(=O)N[C@@H](CCCNC(=N)N)C(=O)N[C@@H](CCC(N)=O)C(=O)N[C@@H](CCC(N)=O)C(N)=O)[C@@H](C)CC)[C@@H](C)CC)[C@@H](C)O)[C@@H](C)O)C(C)C)C(C)C` [Melittin], for which the “average net binding to HA” value in data set [1] is given as −503±5 RU. For the same molecule, the “concentration giving levels of hemolysis comparable to HABP35 at 512 μg/mL” value in the data set with human red blood cells (1% human red blood cells, 12 hours) is on record as “less than 1 μg/mL”. Further, the “potency as a hemolytic agent relative to HABP35” value in the data set on human red blood cells (comparison with HABP35) is recorded as “more than 500 times”.

In the case of “STMMSRSHKTRSHHV (all d isomers) ([dS][dT][dM][dM][dS][dR][dS][dH][dK][dT][dR][dS][dH][dH][dV]-NH2) [HABP42]”, in the data set on S. aureus strain PS80, the “bacterial burden at the wound site compared with PBS” value is “decrease in bacterial burden”.
